Measurements as given in patent US20110015225A1, “Heterocyclic compound” (Takeda Pharmaceutical Company Limited, priority 2008, published 2011).

Each compound was assayed against MCH receptor (SLC-1) (UniProt Q99705) (assay: MCH receptor antagonistic activity using GTPγS binding assay). Conditions: [35S]-GTPγS binding, membrane fractions of SLC-1 expression CHO cells, 3×10^−10 M MCH, 25° C. 1 hr; read-out: Inhibitory Activity (IC50 value: nM).
Assay type: biochemical, human
Description: Using human SLC-1 expression CHO cell clone 57 and rat SLC-1 expression CHO cell clone 44 described in WO01/82925, membrane fractions of SLC-1 expression CHO cells were prepared by the following method. In phosphate buffered saline (pH 7.4) supplemented with 5 mM EDTA (ethylenediaminetetraacetic acid) were suspended human and rat SLC-1 expression CHO cells (1×10^8) and centrifuged. Homogenate buffer (10 ml, 10 mM […], 5 mM EDTA, pH 7.5) was added to the pellets of the cells and, using Polytron Homogenizer, the mixture was homogenated. The supernatant obtained after centrifugation at 400×g for 15 min was further centrifuged at 100,000×g for 1 hr to give precipitate of the membrane fraction. The precipitate was suspended in 2 ml of an assay buffer [50 mM Tris-HCl (pH 7.5), 1 mM EDTA, 0.1% BSA (bovine serum albumin), 10 mM MgCl2, 100 mM NaCl, 1 μM GDP (guanosine 5′-diphosphate), 0.25 mM PMSF (phenylmethylsulfonyl fluoride), […]] and centrifuged at 100,000×g for 1 hr. The membrane fraction recovered as precipitate was suspended again in 20 ml of an assay buffer, and after dispensing, preserved at −80° C. and used upon thawing each time when in use.
The MCH receptor antagonistic activity of the test compound was determined as follows. The membrane fractions of SLC-1 expression CHO cells (171 μl) diluted with an assay buffer was dispensed to a polypropylene 96 well plate and 3×10^−10 M MCH (2 μl) diluted with DMSO solution, test compound solution (2 μl) diluted to various concentrations and [^35S]-Guanosine 5′-(γ-thio)triphosphate (25 μl, Daiichi Pure Chemicals Co., Ltd.) were respectively added (cellular membrane final concentration: 20 μg/ml, [^35S]-Guanosine 5′-(γ-thio)triphosphate final concentration: 0.33 nM). The reaction mixture was reacted at 25° C. for 1 hr with stirring, suction filtered with a glass filter (GF-C) and washed 3 times with a wash solution (300 μl, 50 mM Tris-HCl buffer, pH 7.5). Liquid scintillator ([…]) was added to the glass filter and the residual radioactivity was determined by a liquid scintillation counter.
Binding inhibition (%)=(radioactivity upon addition of test compound and MCH−radioactivity upon addition of DMSO solution)/(radioactivity upon addition of MCH−radioactivity upon addition of DMSO solution)×100
From the binding inhibition (%), IC50 of the test compound was calculated.

Row | Structure (SMILES) | IC50
1 | Cc1c(NC(=O)c2ccc(OCC3CC3)cc2)ccc2cc(CNCC3CCN(S(C)(=O)=O)CC3)cnc12 [Ex. 14, 4-(cyclopropylmethoxy)-N-{8-methyl-3-[({[1-(methylsulfonyl)piperidin-4-yl]methyl}amino)methyl]quinolin-7-yl}benzamide] | 3 nM
2 | Cc1c(NC(=O)c2ccc(OCC3CC3)cc2)ccc2cc(CNCC(C)(C)CS(C)(=O)=O)cnc12 [Ex. 4, 4-(cyclopropylmethoxy)-N-[3-({[2,2-dimethyl-3-(methylsulfonyl)propyl]amino}methyl)-8-methylquinolin-7-yl]benzamide] | 2.8 nM
3 | Cc1c(NC(=O)c2ccc(OCCC3CC3)cc2)ccc2cc(CNCCCS(C)(=O)=O)cnc12 [Ex. 18, 4-(2-cyclopropylethoxy)-N-[8-methyl-3-({[3-(methylsulfonyl)propyl]amino}methyl)quinolin-7-yl]benzamide] | 1.1 nM
4 | Cc1c(NC(=O)c2ccc(OCC3CC3)cc2)ccc2cc(CNCCCS(C)(=O)=O)cnc12 [Ex. 2, 4-(cyclopropylmethoxy)-N-[8-methyl-3-({[3-(methylsulfonyl)propyl]amino}methyl)quinolin-7-yl]benzamide] | 2.3 nM
5 | Cc1c(NC(=O)c2ccc(OCC3CC3)cc2)ccc2cc(CNCCCCS(C)(=O)=O)cnc12 [Ex. 27, 4-(cyclopropylmethoxy)-N-[8-methyl-3-({[4-(methylsulfonyl)butyl]amino}methyl)quinolin-7-yl]benzamide] | 1.6 nM
6 | Cc1c(NC(=O)c2ccc(OCC3CC3)cc2)ccc2cc(C(C)NCCCS(C)(=O)=O)cnc12 (stereo not drawn) [Ex. 3, 4-(cyclopropylmethoxy)-N-[8-methyl-3-(1-{[3-(methylsulfonyl)propyl]amino}ethyl)quinolin-7-yl]benzamide] | 2.2 nM
7 | Cc1c(NC(=O)c2ccc(OCC3CC3)cc2)ccc2cc([C@@H](C)NC3CC[S+]([O-])CC3)cnc12 (stereo partly drawn) [Ex. 30, 4-(cyclopropylmethoxy)-N-(8-methyl-3-{(1R)-1-[cis-(1-oxidotetrahydro-2H-thiopyran-4-yl)amino]ethyl}quinolin-7-yl)benzamide] | 3.9 nM
8 | Cc1c(NC(=O)c2ccc(OCC3CC3)cc2)ccc2cc(C(C)NCCNS(C)(=O)=O)cnc12 (stereo not drawn) [Ex. 7, 4-(cyclopropylmethoxy)-N-{8-methyl-3-[1-({2-[(methylsulfonyl)amino]ethyl}amino)ethyl]quinolin-7-yl}benzamide] | 3.7 nM
9 | O=C(Nc1ccc2cc(CNC3CCS(=O)(=O)CC3)ccc2c1)c1ccc(OCC2CC2)cc1 [Ex. 46, 4-(cyclopropylmethoxy)-N-(6-{[(1,1-dioxidotetrahydro-2H-thiopyran-4-yl)amino]methyl}naphthalen-2-yl)benzamide] | 4.4 nM
10 | Cc1c(NC(=O)c2ccc(C#CC3CC3)cc2)ccc2cc(CNCCCS(C)(=O)=O)cnc12 [Ex. 44, 4-(cyclopropylethynyl)-N-[8-methyl-3-({[3-(methylsulfonyl)propyl]amino}methyl)quinolin-7-yl]benzamide] | 2.2 nM
11 | Cc1c(NC(=O)c2ccc(C#CC3CC3)cc2)ccc2cc(CNC3CCN(S(C)(=O)=O)CC3)cnc12 [Ex. 42, 4-(cyclopropylethynyl)-N-[8-methyl-3-({[1-(methylsulfonyl)piperidin-4-yl]amino}methyl)quinolin-7-yl]benzamide] | 2.3 nM

The next lines start with the values.

Row | IC50 | Structure (SMILES)
12 | 4.6 nM | Cc1c(NC(=O)c2ccc(OCC3CC3)cc2)ccc2cc(C(C)NC3CCS(=O)(=O)CC3)cnc12 (stereo not drawn) [Ex. 28, 4-(cyclopropylmethoxy)-N-(3-{1-[(1,1-dioxidotetrahydro-2H-thiopyran-4-yl)amino]ethyl}-8-methylquinolin-7-yl)benzamide]
13 | 1.2 nM | Cc1c(NC(=O)c2ccc(OCCC3CC3)cc2F)ccc2cc(CNC3CC[S+]([O-])CC3)cnc12 (stereo not drawn) [Ex. 25, 4-(2-cyclopropylethoxy)-2-fluoro-N-(8-methyl-3-{[cis-1-oxidotetrahydro-2H-thiopyran-4-yl)amino]methyl}quinolin-7-yl)benzamide]
14 | 3.4 nM | Cc1c(NC(=O)c2ccc(OCC3CC3)cc2F)ccc2cc(CNC3CC[S+]([O-])CC3)cnc12 (stereo not drawn) [Ex. 36, 4-(cyclopropylmethoxy)-2-fluoro-N-(8-methyl-3-{[(cis-1-oxidotetrahydro-2H-thiopyran-4-yl)amino]methyl}quinolin-7-yl)benzamide]
15 | 2.7 nM | Cc1c(NC(=O)c2ccc(OCCC3CC3)cc2)ccc2cc(CNC3CC[S+]([O-])CC3)cnc12 (stereo not drawn) [Ex. 21, 4-(2-cyclopropylethoxy)-N-(8-methyl-3-{[(trans-1-oxidotetrahydro-2H-thiopyran-4-yl)amino]methyl}quinolin-7-yl)benzamide]
16 | 4.1 nM | Cc1c(NC(=O)c2ccc(OCC3CC3)cc2)ccc2cc(CNC3CC[S+]([O-])CC3)cnc12 (stereo not drawn) [Ex. 33, 4-(cyclopropylmethoxy)-N-(8-methyl-3-{[(cis-1-oxidotetrahydro-2H-thiopyran-4-yl)amino]methyl}quinolin-7-yl)benzamide]
17 | 1.5 nM | Cc1c(NC(=O)c2ccc(OCCC3CC3)cc2F)ccc2cc(CNC3CCS(=O)(=O)CC3)cnc12 [Ex. 23, 4-(2-cyclopropylethoxy)-N-(3-{[(1,1-dioxidotetrahydro-2H-thiopyran-4-yl)amino]methyl}-8-methylquinolin-7-yl)-2-fluorobenzamide]
18 | 1.8 nM | Cc1c(NC(=O)c2ccc(OCCC3CC3)cc2)ccc2cc(CNC3CC[S+]([O-])CC3)cnc12 (stereo not drawn) [Ex. 22, 4-(2-cyclopropylethoxy)-N-(8-methyl-3-{[(cis-1-oxidotetrahydro-2H-thiopyran-4-yl)amino]methyl}quinolin-7-yl)benzamide]
19 | 4.9 nM | Cc1c(NC(=O)c2ccc(/C=C/C3CC3)cc2)ccc2cc(CNC3CCS(=O)(=O)CC3)cnc12 [Ex. 45, 4-[(E)-2-cyclopropylvinyl]-N-(3-{[(1,1-dioxidotetrahydro-2H-thiopyran-4-yl)amino]methyl}-8-methylquinolin-7-yl)benzamide]
20 | 2.7 nM | Cc1c(NC(=O)c2ccc(OCC3CC3)cc2F)ccc2cc(CNC3CCS(=O)(=O)CC3)cnc12 [Ex. 34, 4-(cyclopropylmethoxy)-N-(3-{[(1,1-dioxidotetrahydro-2H-thiopyran-4-yl)amino]methyl}-8-methylquinolin-7-yl)-2-fluorobenzamide]
21 | 5.1 nM | Cc1c(NC(=O)c2ccc(OCC3CC3)cc2)ccc2cc(CNC3CCS(=O)(=O)CC3)cnc12 [Ex. 31, 4-(cyclopropylmethoxy)-N-(3-{[(1,1-dioxidotetrahydro-2H-thiopyran-4-yl)amino]methyl}-8-methylquinolin-7-yl)benzamide]
22 | 5.6 nM | Cc1c(NC(=O)c2ccc(OCC3CC3)cc2)ccc2cc(CNCC3(O)CCS(=O)(=O)CC3)cnc12 [Ex. 15, 4-(cyclopropylmethoxy)-N-[3-({[(4-hydroxy-1,1-dioxidotetrahydro-2H-thiopyran-4-yl)methyl]amino}methyl)-8-methylquinolin-7-yl]benzamide]
23 | 6.5 nM | Cc1c(NC(=O)c2ccc(OCC3CC3)cc2)ccc2cc(CNC3CC[S+]([O-])CC3)cnc12 (stereo not drawn) [Ex. 32, 4-(cyclopropylmethoxy)-N-(8-methyl-3-{[(trans-1-oxidotetrahydro-2H-thiopyran-4-yl)amino]methyl}quinolin-7-yl)benzamide]
24 | 5.6 nM | Cc1c(NC(=O)c2ccc(OCC3CC3)cc2F)ccc2cc(CNC3CC[S+]([O-])CC3)cnc12 (stereo not drawn) [Ex. 35, 4-(cyclopropylmethoxy)-2-fluoro-N-(8-methyl-3-{[(trans-1-oxidotetrahydro-2H-thiopyran-4-yl)amino]methyl}quinolin-7-yl)benzamide]
